Experimental data from patent publication US20220177818A1, “OPERATION PROCESS FOR A CELL CULTIVATION SYSTEM” (THE AUTOMATION PARTNERSHIP (CAMBRIDGE ) LTD., priority 2019, published 2022).

System: fucosyltransferase
Experiment: Feedback experiment: glycan profile of the monoclonal antibody from parallel CHO-bioreactor cultivations after feeding the inhibitor
Assay type: cell-based
Settings: Day 12 (end of cultivation), inhibitor in feed once per day from day 4; average of all 3 cultivations; relative to total measured glycans
Text: In said experiment, parallel CHO-bioreactor cultivations producing a monoclonal antibody were started.
Values are in relative to the total amount of measured glycans. The different glycan profile abbreviations are explained in FIG. 7B. […] A decision was taken to reduce the fucosylated species, for example in order to increase ADCC potency (see e.g. Peipp et al 2008).
For this reason, the feeding strategy was adapted to contain an inhibitor of fucosyltransferase (2F-Peracetly-Fucose) in the feed (73). The feed was administered once per day throughout the experiment. Process samples were taken at the end of cultivation (day 12) and analyzed to check for the effect of the altered feeding strategy and compared to data from standard cultivations (74).

Compound: CC(=O)OC1O[C@@H](C)[C@@H](OC(C)=O)[C@@H](OC(C)=O)[C@@H]1F (stereo partly drawn) [2F-Peracetly-Fucose, 2F-Peracetyl-Fucose]
- percentage distribution of analyzed glycans: FA2: 7,3%
- percentage distribution of analyzed glycans: FA2G1: 2,6%
- percentage distribution of analyzed glycans: FA2G2: 0,26%
